The values below are quoted from earlier work in PubChem BioAssay AID1259409 (Chemical Carcinogenesis Research Information System (CCRIS), 2018).

The test system of this data set is rodent chemically induced tumor inhibition, incidence and multiplicity. The experiment in a line: CCRIS tumor inhibitor studies. The settings on record: for outcome: Carcinogen: 7,12-Dimethylbenz(a)anthracene, Route [Inhibitor]: Oral (gavage), Species: Rat, Strain/Sex: (16/Group), Target Tissue: Type of Lesion: Mammary Gland: tumor, Dose [Carcinogen]: 100 mg/kg once at 50 days of age, Promoter: None.

Where a SMILES comes first, the peptide text is derived from it. [ ]: non-standard residue; d: D form. The star is where a group is joined. Sta = CC(C)C[C@H](N)[C@@H](O)CC(=O)O; Isovaleryl = CC(C)CC(=O)*

As to `CC[C@@H](C)[C@@H](N)C(=O)OC`, the “tumour outcome (control, treated, inhibition, significance)” value runs as follows: (Carcinogen: 7,12-DIMETHYLBENZ[A]ANTHRACENE, 57-97-6, Dose [Inhibitor]: 0, 1 MG IN 0.2 ML ACETONE APPLIED 30 MIN AFTER EACH MEZEREIN DOSE (STUDY DURATION: 20 WK), Route [Inhibitor]: DERMAL, Species: MOUSE, Strain/Sex: SENCAR/FEMALE, Target Tissue: Type of Lesion: SKIN: PAPILLOMA, Dose [Carcinogen]: 0.1 UMOL IN 0.2 ML ACETONE ONCE, Promoter: TPA, 16561-29-8, MEZEREIN, 37807-41-5, Promoter: TPA, 16561-29-8, MEZEREIN, 37807-41-5) 100%, 76%, 24%, p<0.005; (Carcinogen: 7,12-DIMETHYLBENZ[A]ANTHRACENE, 57-97-6, Dose [Inhibitor]: 0, 1 MG IN 0.2 ML ACETONE APPLIED 30 MIN AFTER EACH TPA DOSE (STUDY DURATION: 20 WK), Route [Inhibitor]: DERMAL, Species: MOUSE, Strain/Sex: SENCAR/FEMALE, Target Tissue: Type of Lesion: SKIN: PAPILLOMA, Dose [Carcinogen]: 0.1 UMOL IN 0.2 ML ACETONE ONCE, Promoter: TPA, 16561-29-8, MEZEREIN, 37807-41-5, Promoter: TPA, 16561-29-8, MEZEREIN, 37807-41-5) 100%, 83%, 17%, p<0.005.
In the case of `CC(=O)O`, the “tumour outcome (control, treated, inhibition, significance)” value (Dose [Inhibitor]: 0, 60 UMOL (MG) INJECTED WITH CARCINOGEN INTO THIGH OF BOTH HIND LIMBS (STUDY DURATION: 79 WK), Route [Inhibitor]: INTRAMUSCULAR, Species: RAT, Strain/Sex: F344/MALE, Target Tissue: Type of Lesion: INJECTION SITE: SARCOMA, Dose [Carcinogen]: 2.5 MG PER SITE INJECTED INTO THIGH OF BOTH HIND LIMBS, Promoter: NONE USED) is 100%, 95%, 5%, not significant.
For `NC(=O)CC[C@H](N)C(=O)O`, the outcome runs as follows: (57-97-6, Dose [Inhibitor]: 0, 1 g/kg/day for 4 wks, study duration 4 wks) 93.8%, 31.2%; (57-97-6, Dose [Inhibitor]: 0, 1 g/kg/day for 11 wks, study duration 11 wks) 93.8%, 43.7%.
On to `Nc1c(Br)cc(Br)cc1CNC1CCC(O)CC1` (configuration not stated), for which the “tumour outcome (control, treated, inhibition, significance)” value (Carcinogen: N-METHYL-N'-NITRO-N-NITROSOGUANIDINE [70-25-7], Dose [Inhibitor]: 0, 25 MG/KG BW 1X/2 D FOR 26 WK BEGINNING 1 WK POST LAST CARCINOGEN DOSE (STUDY DURATION: 52 WK), Route [Inhibitor]: SUBCUTANEOUS, Species: RAT, Strain/Sex: WISTAR/MALE, Target Tissue: Type of Lesion: STOMACH: TUMOR, Dose [Carcinogen]: 25 UG/ML IN DRINKING WATER FOR 25 WK (STUDY DURATION: 52 WK), Promoter: AMMONIUM ACETATE [631-61-8], SODIUM HYPOCLORITE [7681-52-9]) was 17/20 (85%), 6/19 (32%), 62%, p<0.01.
Regarding `CC(C)CC(=O)N[C@H](C(=O)N[C@H](C(=O)N[C@@H](CC(C)C)[C@@H](O)CC(=O)N[C@@H](C)C(=O)N[C@@H](CC(C)C)[C@@H](O)CC(=O)O)C(C)C)C(C)C` (Isovaleryl-VV[Sta]A[Sta]-OH), the “tumour outcome (control, treated, inhibition, significance)” value is given as 1/13 (8%), 1/12 (8%), 0%, not significant (Carcinogen: 1,2,3,4,5,6-HEXACHLOROCYCLOHEXANE, 319-84-6, Dose [Inhibitor]: 0.1% IN DIET FOR 12 WK FOLLOWING CARCINOGEN TREATMENT REGIMEN (STUDY DURATION: 48 WK), Route [Inhibitor]: ORAL, Species: MOUSE, Strain/Sex: DDY/MALE, Target Tissue: Type of Lesion: LIVER: NODULAR HYPERPLASIA, Dose [Carcinogen]: 500 PPM IN DIET FOR 24 WK, Promoter: NONE USED) and 6/13 (46%), 8/10 (80%), -74%, not calculated (Carcinogen: N-BUTYL-N-(4-HYDROXY-BUTYL)NITROSAMINE, 3817-11-6, Dose [Inhibitor]: 0.1% IN DIET FOR 32 WK FOLLOWING CARCINOGEN TREATMENT REGIMEN (STUDY DURATION: 40 WK), Route [Inhibitor]: ORAL, Species: MOUSE, Strain/Sex: ICR/MALE, Target Tissue: Type of Lesion: URINARY BLADDER: TUMOR, Dose [Carcinogen]: 0.05% IN DRINKING WATER FOR FIRST 8 WK, Promoter: NONE USED).
Take `CCCCC(C)(O)C/C=C/[C@H]1[C@H](O)CC(=O)[C@@H]1CCCCCCC(=O)OC` (some centres not stated): the “tumour outcome (control, treated, inhibition, significance)” value (Carcinogen: N-METHYL-N'-NITRO-N-NITROSOGUANIDINE, 70-25-7, Dose [Inhibitor]: 0, 200 UG/KG/D IN DRINKING WATER FOR 52 WK CONCURRENTLY WITH CARCINOGEN TREATMENT (STUDY DURATION: 52 WK), Route [Inhibitor]: ORAL, Species: RAT, Strain/Sex: SPRAGUE-DAWLEY/MALE, Target Tissue: Type of Lesion: GLANDULAR STOMACH: ADENOCARCINOMA, Dose [Carcinogen]: 120 MG/L IN DRINKING WATER FOR 52 WK, Promoter: NONE USED) is 9/15 (60%), 5/20 (25%), 58%, p<0.05.
`C=C1/C(=C\C=C2/CCC[C@]3(C)[C@@H]([C@H](C)CCCC(C)C)CC[C@@H]23)C[C@@H](O)C[C@@H]1O`: the “tumour outcome (control, treated, inhibition, significance)” value runs as follows: (Carcinogen: N-METHYL-N'-NITRO-N-NITROSOGUANIDINE [70-25-7], Dose [Inhibitor]: 0.04 UG IN MEDIUM CHAIN TRIGLYCERIDE 3X/WK FOR 24 WK BEGINNING IMMEDIATELY POST LAST CARCINOGEN DOSE (STUDY DURATION: 48, Route [Inhibitor]: INTRAGASTRIC, Species: RAT, Strain/Sex: WISTAR WKY/STD/MALE, Target Tissue: Type of Lesion: STOMACH AND SMALL INTESTINE: TUMOR, Dose [Carcinogen]: 0.01% IN DRINKING WATER FOR 24 WK (STUDY DURATION: 48 WK), Promoter: NONE) 16/30 (53%), 8/30 (27%), 49%, p<0.05; (Carcinogen: N-METHYL-N'-NITRO-N-NITROSOGUANIDINE, 70-25-7, Dose [Inhibitor]: 0, 0.04 UG 3/WK FOR 24 WK BEGINNING POST CARCINOGEN TREATMENT (STUDY DURATION: 48 WK), Route [Inhibitor]: GAVAGE, Species: RAT, Strain/Sex: WISTAR/MALE, Target Tissue: Type of Lesion: GASTROINTESTINAL TRACT: TUMOR, Dose [Carcinogen]: 0.01% IN DRINKING WATER FOR 24 WK, Promoter: NONE USED) 16/30 (53%), 8/30 (27%), 49%, p<0.05; (Carcinogen: N-METHYL-N-NITROSOUREA, 684-93-5, Dose [Inhibitor]: 0, 0.04 UG IN 0.2 ML OF MEDIUM CHAIN TRIGLYCERIDE 3/WK FOR 40 WK (STUDY DURATION: 46 WK), Route [Inhibitor]: INTRAGASTRIC, Species: RAT, Strain/Sex: F344/FEMALE, Target Tissue: Type of Lesion: COLON: TUMOR, Dose [Carcinogen]: 1 MG IN 0.5 ML DISTILLED WATER 1/WK FOR 40 WK, Promoter: NONE USED) 21/24 (88%), 12/25 (48%), 45%, p<0.01; (Carcinogen: N-METHYL-N-NITROSOUREA, 684-93-5, Dose [Inhibitor]: 0.04 UG IN 0.2 ML OF MEDIUM CHAIN TRIGLYCERIDE FOLLOWING EACH PROMOTER DOSE 3/WK FOR 48 WK (STUDY DURATION: 50 WK), Route [Inhibitor]: GAVAGE, Species: RAT, Strain/Sex: F344/FEMALE, Target Tissue: Type of Lesion: COLON: ADENOMA OR ADENOCARCINOMA OR LEIOMYOSARCOMA, Dose [Carcinogen]: 2.5 MG IN 0.5 ML DISTILLED WATER TWICE IN 1 WK, Promoter: LITHOCHOLIC ACID, 434-13-9) 15/32 (47%), 6/30 (20%), 57%, p<0.05.
With `CCCCCCCCCC`, the “tumour outcome (control, treated, inhibition, significance)” value (Carcinogen: BENZO[A]PYRENE, 50-32-8, Dose [Inhibitor]: 25 MG IN 0.1 ML ACETONE 3/WK ADMINISTERED SIMULTANEOUSLY WITH CARCINOGEN FOR DU RATION OF STUDY (STUDY DURATION: 440 D), Route [Inhibitor]: DERMAL, Species: MOUSE, Strain/Sex: ICR/FEMALE, Target Tissue: Type of Lesion: SKIN: SQUAMOUS CARCINOMA, Dose [Carcinogen]: 5 UG IN 0.1 ML ACETONE 3/WK FOR DURATION OF STUDY, Promoter: NONE USED) was 12/50 (24%), 34/50 (68%), -183%, not calculated and the “tumour outcome (control, treated, inhibition, significance)” value (Carcinogen: BENZO[A]PYRENE, 50-32-8, Dose [Inhibitor]: 25 MG IN 0.1 ML ACETONE 3/WK ADMINISTERED SIMULTANEOUSLY WITH CARCINOGEN FOR DURATION OF STUDY (STUDY DURATION: 440 D), Route [Inhibitor]: DERMAL, Species: MOUSE, Strain/Sex: ICR/FEMALE, Target Tissue: Type of Lesion: SKIN: PAPILLOMA, Dose [Carcinogen]: 5 UG IN 0.1 ML ACETONE 3/WK FOR DURATION OF STUDY, Promoter: NONE USED) is given as 16/50 (32%), 38/50 (76%), -138%, not calculated.
In the case of `CC(O)CCC(=O)c1ccoc1` (configuration not stated), the “tumour outcome (control, treated, inhibition, significance)” value (Carcinogen: 4-(METHYLNITROSAMINO)-1-(3-PYRIDYL)-1-BUTANONE, 64091-91-4, Dose [Inhibitor]: 0, 1 UMOL IN 0.1 ML CORN OIL ONCE 2 HR PRIOR TO CARCINOGEN DOSE (STUDY DURATION: 16 WK), Route [Inhibitor]: GAVAGE, Species: MOUSE, Strain/Sex: STRAIN-A/FEMALE, Target Tissue: Type of Lesion: LUNG: ADENOMA, Dose [Carcinogen]: 10 UMOL IN 0.1 ML SALINE ONCE, Promoter: NONE USED) is on record as 100%, 100%, 0%, not significant.
With `CC(C)[C@H]1C=C[C@H](O)CC1`, the “tumour outcome (control, treated, inhibition, significance)” value (Carcinogen: 7,12-DIMETHYLBENZ[A]ANTHRACENE, 57-97-6, Dose [Inhibitor]: 0, 12 NMOL PER REPEATED APPLICATION FOR 20 WK (STUDY DURATION: 20 WK), Route [Inhibitor]: DERMAL, Species: MOUSE, Strain/Sex: CD-1/FEMALE, Target Tissue: Type of Lesion: SKIN: TUMOR, Dose [Carcinogen]: 100 UG ONCE, Promoter: OKADAIC ACID, 78111-17-8) is given as 87%, 53%, 39%, not calculated.
